This note sets out measurements from patent US6228868A, “Oxazoline antiproliferative agents” (Abbott Laboratories, priority 1999, dated 2001).

In one assay the test system is NCI-H460 cells. Kind of assay: 48-hour cellular proliferation assay, sulforhodamine stain (human lung large cell carcinoma, MDR negative). The class given is cell-based. Particulars: for NCI-460 (% Inhibition at 10^-4 M) / inhibition at 100 µM: NCI-460 cells, 10^-4 M; for inhibition at 100 µM / IC50: Homo sapiens; for IC50: NCI-H460 cells, values in nM. As for the experimental part:
(§1) Compounds of this invention were tested in a 48-hour cellular proliferation assay that uses human colon adenocarcinoma, MDR positive (HCT-15) cells, and human lung large cell carcinoma, MDR negative (NCI-H460) cells, in the 96-well microtitre format described in Skehan P., et al. New Colorimetric Cytotoxicity Assay for Anticancer Drug Screening. 1990, J. Natl. Cancer Inst. 82:1107-1112, hereby incorporated by reference. Briefly, the wells of a microtitre plate were charged sequentially with cultured cells and compounds of the invention (1.0×10^-4 to 1.0×10^-11 M in 10% DMSO prepared by dissolving compounds of the invention in DMSO and adding 11 μL of the DMSO solution to 100 μL of culture medium for a final DMSO concentration of 10%). Two of the following controls were also present in each microtitre plate: a solvent (DMSO) control without drug that yielded a 0% inhibition level and a trichloroacetic acid-treated well that yielded a 100% inhibition level. The cells were grown in culture (37° C., 5% CO2 atmosphere) for 48 hours then fixed by the addition of trichloroacetic acid. The wells were stained with sulforhodamine, washed with 1% acetic acid, and treated with 0.01 M tris buffer (100 μL) to solubilize the adherent dye. The absorbance of the dye solution was measured with a Molecular Devices SpectraMax340 plate reader. Percent inhibition and Inhibitory Concentrations (IC50) values were obtained by calculating the proportional response of the experimental values to the absorbance values of the controls.

The next assay deals with HCT-15 cells. The experiment in a line: 48-hour cellular proliferation assay, sulforhodamine stain (human colon adenocarcinoma, MDR positive). The assay is classed as cell-based. Particulars: for inhibition at 100 µM / IC50: Homo sapiens; for HCT-15 (% Inhibition at 10^-4 M) / inhibition at 100 µM: 10^-4 M. As for the experimental part: as §1

As to “2-(3-hydroxy-4-methoxyphenyl)-4-dimethyl-5-(3,4,5-trimethoxyphenyl)-Δ2,3-oxazoline [Example 13]”, the “NCI-460 (% Inhibition at 10^-4 M)” value with NCI-H460 cells was 100%. Also, in the assay on HCT-15 cells, the “HCT-15 (% Inhibition at 10^-4 M)” value was 100%. Consider `COc1cc(C2CN=C(c3ccc(N(C)C)cc3)O2)cc(OC)c1OC` (stereo not shown) [Example 1, 2-(4-dimethylaminophenyl)-5-(3,4,5-trimethoxyphenyl)-Δ2,3-oxazoline], for which the inhibition at 100 µM in the assay on NCI-H460 cells and in the assay on HCT-15 cells was 100% throughout. Consider `COc1ccc(C2=NCC(c3cc(OC)c(OC)c(OC)c3)O2)cc1O` (stereo not shown) [Example 2, 2-(3-hydroxy-4-methoxyphenyl)-5-(3,4,5-trimethoxyphenyl)-Δ2,3-oxazoline], for which the inhibition at 100 µM in the assay with NCI-H460 cells and in the assay with HCT-15 cells was 100% throughout. Consider `COc1ccc(C2=NCC(c3cc(OC)c(OC)c(OC)c3)O2)cc1` (stereo not shown) [Example 3, 2-(4-methoxyphenyl)-5-(3,4,5-trimethoxyphenyl)-Δ2,3-oxazoline], for which the inhibition at 100 µM in the assay with NCI-H460 cells and in the assay with HCT-15 cells was 100% in each case. On to `COc1cc(OC)cc(C2=NCC(c3cc(OC)c(OC)c(OC)c3)O2)c1` (stereo not shown) [Example 4, 2-(3,5-dimethoxyphenyl)-5-(3,4,5-trimethoxyphenyl)-Δ2,3-oxazoline], for which the inhibition at 100 µM in the assay on NCI-H460 cells and in the assay with HCT-15 cells was 100% throughout. For the compound `COc1cc(C2CN=C(c3ccc4[nH]cc(C(C)=O)c4c3)O2)cc(OC)c1OC` (stereo not shown) [Example 5, 2-(3-acetylindol-5-yl)-5-(3,4,5-trimethoxyphenyl)-Δ2,3-oxazoline], the “NCI-460 (% Inhibition at 10^-4 M)” value in the assay with NCI-H460 cells amounted to 100%. Moreover, the “HCT-15 (% Inhibition at 10^-4 M)” value in the assay with HCT-15 cells was 100%. As for `COc1cc(C2CN=C(c3ccc4c(ccn4C)c3)O2)cc(OC)c1OC` (stereo not shown) [Example 6, 2-(1-methylindol-5-yl)-5-(3,4,5-trimethoxyphenyl)-Δ2,3-oxazoline], the inhibition at 100 µM with NCI-H460 cells and in the assay on HCT-15 cells was 100% in each case. Take `COc1cc(C2CN=C(c3c[nH]c4ccccc34)O2)cc(OC)c1OC` (stereo not shown) [Example 7, 2-(indol-3-yl)-5-(3,4,5-trimethoxyphenyl)-Δ2,3-oxazoline]: the inhibition at 100 µM in the assay with NCI-H460 cells and in the assay on HCT-15 cells was 100% each time. In the case of `COc1cc(C2CN=C(c3cc4ccccc4[nH]3)O2)cc(OC)c1OC` (stereo not shown) [Example 8, 2-(indol-2-yl)-5-(3,4,5-trimethoxyphenyl)-Δ2,3-oxazoline], the inhibition at 100 µM in the assay on NCI-H460 cells and in the assay with HCT-15 cells was 100% in each case.

On to `COCn1ccc2cc(C3=NCC(c4cc(OC)c(OC)c(OC)c4)O3)ccc21` (stereo not shown) [Example 9, 2-(1-methoxymethylindol-5-yl)-5-(3,4,5-trimethoxyphenyl)-Δ2,3-oxazoline], for which the inhibition at 100 µM with NCI-H460 cells and in the assay on HCT-15 cells was 100% each time. With `COc1cc(C2=NCC(c3cc(OC)c(OC)c(OC)c3)O2)ccc1N` (stereo not shown) [Example 10, 2-(4-amino-3-methoxyphenyl)-5-(3,4,5-trimethoxyphenyl)-Δ2,3-oxazoline], the inhibition at 100 µM with NCI-H460 cells and in the assay with HCT-15 cells was 100% in each case. Turning to `COc1cc(C2CN=C(c3ccc4[nH]ccc4c3)O2)cc(OC)c1OC` (stereo not shown) [Example 11, 2-(indol-5-yl)-5-(3,4,5-trimethoxyphenyl)-Δ2,3-oxazoline], the inhibition at 100 µM in the assay on NCI-H460 cells and with HCT-15 cells was 100% throughout. With `COc1cc(C2CN=C(c3ccc(N)c(C)c3)O2)cc(OC)c1OC` (stereo not shown) [Example 12, 2-(4-amino-3-methylphenyl)-5-(3,4,5-trimethoxyphenyl)-Δ2,3-oxazoline], the inhibition at 100 µM with NCI-H460 cells and in the assay on HCT-15 cells was 100% each time.

`COc1cc(C2CN=C(c3ccc4c(c3)CCCN4C)O2)cc(OC)c1OC` (stereo not shown) [Example 14, 2-(N-methyl-tetrahydroquinol-6-yl)-5-(3,4,5-trimethoxyphenyl)-Δ2,3-oxazoline]: the inhibition at 100 µM in the assay with NCI-H460 cells and in the assay with HCT-15 cells was 100% in each case. For the compound `COc1cc(C2CN=C(C3CC3C)O2)cc(OC)c1OC` (stereo not shown) [Example 15, 2-(2-methyl-cyclopropyl)-5-(3,4,5-trimethoxyphenyl)-Δ2,3-oxazoline], the inhibition at 100 µM in the assay with NCI-H460 cells and in the assay on HCT-15 cells was 50% in each case. With `CCOc1ccc(C2=NCC(c3cc(OC)c(OC)c(OC)c3)O2)cc1` (stereo not shown) [Example 16, 2-(4-ethoxyphenyl)-5-(3,4,5-trimethoxyphenyl)-Δ2,3-oxazoline], the inhibition at 100 µM came out at 90.7% in the assay on NCI-H460 cells and 96.2% with HCT-15 cells. In the same order, the values of `COc1ccc(C2=NCC(c3cc(OC)c(OC)c(OC)c3)O2)cc1OC` (stereo not shown) [Example 17, 2-(3,4-dimethoxyphenyl)-5-(3,4,5-trimethoxyphenyl)-Δ2,3-oxazoline] are 85.8% and 91%. Take `COc1cc(C2=NCC(c3cc(OC)c(OC)c(OC)c3)O2)ccc1OCc1ccccc1` (stereo not shown) [Example 18, 2-(4-benzyloxy-3-methoxyphenyl)-5-(3,4,5-trimethoxyphenyl)-Δ2,3-oxazoline]: the results for the inhibition at 100 µM in the assay with NCI-H460 cells and with HCT-15 cells were 92.2% and 96%, respectively. In the same order, the values of `COc1cc(C2CN=C(c3cc(Br)cc4c3OCC4)O2)cc(OC)c1OC` (stereo not shown) [Example 19, 2-(2,3-dihydro-5-bromo-7-benzofuranyl)-5-(3,4,5-trimethoxyphenyl)-Δ2,3-oxazoline] are 100% and 98.9%. The like results for `COc1ccc(C2=NCC(c3cc(OC)c(OC)c(OC)c3)O2)cc1OC(C)=O` (stereo not shown) [Example 20, 2-(3-acetoxy-4-methoxyphenyl)-5-(3,4,5-trimethoxyphenyl)-Δ2,3-oxazoline] were, in that order, 100% and 91%. In the same order, the values of `COc1cc(C2CN=C(c3ccc4c(c3)CCN4C)O2)cc(OC)c1OC` (stereo not shown) [Example 21, 2-(1-methyl-2,3-dihydro-indol-5-yl)-5-(3,4,5-trimethoxyphenyl)-Δ2,3-oxazoline] are 92.4% and 100%. For `COc1cc(C2CN=C(c3ccc4cc[nH]c4c3)O2)cc(OC)c1OC` (stereo not shown) [Example 27, 2-(6-indolyl)-5-(3,4,5-trimethoxyphenyl)-Δ2,3-oxazoline], the IC50 was 170 nM in the assay on NCI-H460 cells and 83 nM in the assay on HCT-15 cells (values in nM). The like results for `COc1cc(C2CN=C(c3ccc4ccn(C)c4c3)O2)cc(OC)c1OC` (stereo not shown) [Example 28, 2-(1-methylindol-6-yl)-5-(3 4.5-trimethoxyphenyl)-Δ2,3-oxazoline] were, in that order, 390 nM and 210 nM. The like results for `COc1cc(C2CN=C(c3cccc4[nH]ccc34)O2)cc(OC)c1OC` (stereo not shown) [Example 29, 2-(4-indolyl)-5-(3,4,5-trimethoxyphenyl)-Δ2,3-oxazoline] were, in that order, 60 nM and 39 nM.

`COc1cc(C2CN=C(c3cccc4c3ccn4C)O2)cc(OC)c1OC` (stereo not shown) [Example 30, 2-(1-methylindol-4-yl)-5-(3,4,5-trimethoxyphenyl)-Δ2,3-oxazoline]: the IC50 in the assay on NCI-H460 cells was found to be 28 nM; in the assay with HCT-15 cells (values in nM), 24 nM. `COc1cc(C2CN=C(c3cccc4ccn(C)c34)O2)cc(OC)c1OC` (stereo not shown) [Example 32, 2-(1-methylindol-7-yl)-5-(3,4,5-trimethoxyphenyl)-Δ2,3-oxazoline]: it took 16000 nM to reach half-maximal inhibition with HCT-15 cells (values given in μM) (IC50). The same measure, in the same setting: the result for `COc1cc(C2CN=C(c3ccc4[nH]cc(C(=O)C(F)(F)F)c4c3)O2)cc(OC)c1OC` (stereo not shown) [Example 76, 2-(3-trifluoroacetyl-5-indolyl)-5-(3,4,5-trimethoxyphenl)-Δ2,3-oxazoline] reads 1300 nM.
